# Experimental data taken from patent US8580763B2, “2, 6-dinitrogen-containing substituted purine derivatives, the preparation and uses thereof” (Zhanggui Wu, priority 2007, dated 2013).
# Experiments:
# [1] = tested on: non-small cell lung cancer; assay: anticancer activity in vitro (SRB, MTT), non-small cell lung cancer; type: cell-based; settings: action time about 72 h
# Protocol: (§1) Antitumor activity tests in vitro and in vivo are carried out to the parital compounds prepared from the above examples. Wherein the method of SRB, MTT is used in vitro, and the action time is about 72 h. Inhibitory effects of the compounds on the growth of mouse Conlon26 cancer are shown in Table 2, inhibitory effects of the compounds on the growth of mouse S180 sarcoma are shown in Table 3.
# [2] = tested on: colon cancer HT-29; assay: anticancer activity in vitro (SRB, MTT), colon cancer HT-29; type: cell-based; settings: Homo sapiens, action time about 72 h
# Protocol: as §1
# [3] = tested on: human liver cancer Bel-7402; assay: anticancer activity in vitro (SRB, MTT), human liver cancer Bel-7402; type: cell-based; settings: action time about 72 h
# Protocol: as §1
# [4] = tested on: lymph cancer Ramos; assay: anticancer activity in vitro (SRB, MTT), lymph cancer Ramos; type: cell-based; settings: Homo sapiens, action time about 72 h
# Protocol: as §1
# [5] = tested on: four different cancer cells; assay: antitumor activity in vitro, summary over the four cancer cells of Table 1; type: cell-based; settings: summary of Table 1
# Protocol: as §1
# Compared with compound I, compound XX has better antitumor effects.
# [6] = tested on: mouse Colon26 cancer; assay: inhibitory effects on the growth of mouse Colon26 cancer in vivo; settings: Colon26 mice; for Initial body weight: baseline
# Protocol: as §1
# [7] = tested on: mouse S180 sarcoma; assay: inhibitory effects on the growth of mouse S180 sarcoma in vivo; settings: S180 mice; for Initial body weight: baseline
# Protocol: as §1
IC50 [1],IC50 [2],IC50 [3],IC50 [4],Structure (SMILES),further results
13.2 µM,5.72 µM,5.91 µM,2.63 µM,COc1cc(Nc2nc(NC3CC3)c3nc[nH]c3n2)cc2cccnc12 [Compound XXIII],
7.55 µM,16.8 µM,4.89 µM,4.14 µM,c1cc(Nc2nc(NC3CC3)c3nc[nH]c3n2)ccn1 [Compound XXIX],
11.1 µM,> 100 µM,> 100 µM,> 100 µM,O=[N+]([O-])c1ccc(Nc2nc(NC3CC3)c3nc[nH]c3n2)cc1 [Compound XXX],
12.5 µM,24.2 µM,1.78 µM,4.96 µM,CC(CO)Nc1nc(Nc2ccc3ncccc3c2)nc2[nH]cnc12 (centres unmarked) [Compound X],

# The next lines start with the compound.
Structure (SMILES),IC50 [1],IC50 [2],IC50 [3],IC50 [4],further results
FC(F)(F)c1cc(Nc2nc(NC3CC3)c3nc[nH]c3n2)cc2cccnc12 [Compound XXIV],11.7 µM,> 100 µM,> 100 µM,> 100 µM,
c1cnc2ccc(Nc3nc(N4CCNCC4)c4nc[nH]c4n3)cc2c1 [Compound XXI],6.27 µM,2.74 µM,2.33 µM,2.33 µM,antitumor activity to four different cancer cells (in words) [5]: higher antitumor activity
c1ccc(Nc2nc(NC3CC3)c3nc[nH]c3n2)nc1 [Compound XXVIII],61.4 µM,81.4 µM,80.2 µM,51.9 µM,
Cc1cc(Nc2nc(NC3CC3)c3nc[nH]c3n2)c2ccccc2n1 [Compound XXV],13.8 µM,2.25 µM,5.28 µM,5.28 µM,
CN(C)c1nc(Nc2ccc3ncccc3c2)nc2[nH]cnc12 [Compound XX],,,,,End body weight ([6]; 100 mg/kg p.o.): 18.74 g; Inhibition rate ([6]; 100 mg/kg p.o.): 72.31%; Tumor removed body weight ([6]; 100 mg/kg p.o.): 18.23 g; Tumor weight ([6]; 100 mg/kg p.o.): 0.51 g; Initial body weight ([6]; 100 mg/kg p.o.): 19.64 g; End body weight ([6]; 150 mg/kg p.o.): 18.68 g; Inhibition rate ([6]; 150 mg/kg p.o.): 79.47%; Tumor removed body weight ([6]; 150 mg/kg p.o.): 18.31 g; Tumor weight ([6]; 150 mg/kg p.o.): 0.38 g; Initial body weight ([6]; 150 mg/kg p.o.): 19.90 g; End body weight ([7]; 100 mg/kg p.o.): 16.53 g; Inhibition rate ([7]; 100 mg/kg p.o.): 72.19%; Tumor removed body weight ([7]; 100 mg/kg p.o.): 15.90 g; Tumor weight ([7]; 100 mg/kg p.o.): 0.63 g; Initial body weight ([7]; 100 mg/kg p.o.): 19.96 g; End body weight ([7]; 200 mg/kg p.o.): 16.80 g; Inhibition rate ([7]; 200 mg/kg p.o.): 73.38%; Tumor removed body weight ([7]; 200 mg/kg p.o.): 16.20 g; Tumor weight ([7]; 200 mg/kg p.o.): 0.61 g; Initial body weight ([7]; 200 mg/kg p.o.): 19.58 g
